Test results from patent publication EP4039094A1, “NOVEL ANTIFUNGAL COMPOUNDS” (Max-Planck-Gesellschaft zur Förderung der Wissenschaften …, priority 2021, dated 2022).

Legend:
U. fabae = assay: Uromyces fabae - Vicia faba leaf infection, pustule formation versus DMSO leaflet; format: in vivo
Description: The Uromyces fabae - Vicia faba system was established by initially obtaining spores as well as broad bean seeds from the Institut für Phytomedizin at Hohenheim University, Germany. Briefly, Vicia faba plants (Bingenheimer Saatgut Frühe Weißkeimige, G142) were propagated in soil up to about the 4 leaf stage (2-3 plants per pot). Plants were transferred to a chamber lined with wet paper. 100 mg U. fabae spores were mixed with 160 mg skimmed milk powder in 200 ml sterile H2O. Tween 20 was added to a final concentration of 0.01 % and the mixture was stirred in the dark for 45 min. Leaves were sprayed with the suspension on both the upper and lower side and afterwards the entire compartment was fogged with H2O before closure and kept in the dark for 20 h. Plants were then gradually allowed to dry and were placed in a growth chamber under a light regime of 16 h light (24°C) and 8 h (20°C) dark until symptoms developed (10-12 days). Plants were tossed and spores were collected on underlying aluminum foil, and aliquots were frozen at -80°C.
For the infection with compounds added, 10 mg of U. fabae spores were mixed with 16 mg skimmed milk powder in 20 ml sterile H2O. Tween 20 was added to a final concentration of 0.01 % and the mixture was stirred in the dark for 45 min. Compounds were diluted to the desired concentration into in the spore suspension. The controls received the same amount of DMSO. Per bean plant, one pinnate leaf with two leaflets was selected and one of the leaflets was infected with spores + compound and the other with spores + DMSO, respectively. To this end leaves were lightly sprayed with H2O and the 100µl spore solution containing the compound or DMSO respectively was applied on the upper part of the using a small painting brush. Afterwards the plants were placed in a chamber lined with wet paper, fogged with H2O before closure and kept in the dark for 20 h. Plants were then gradually allowed to dry and were placed in a growth chamber under a light regime of 16 h light (24°C) and 8 h (20°C) dark until symptoms developed. The symptoms were quantified by using a previously described method (Sillero and Rubiales, 2002) with minor modifications. Comparisons of pustule formation were done as follow: leaf treated with spores plus DMSO (control) versus leaf treated with spores plus compound in DMSO (test). A single bifurcated leaf was used for this assay, and one half received the control and the other half receive spores with compound. Then it was determined whether pustule formation occurs or is inhibited. Leaves were scored for the development of brownish-red pustules. Only when brownish-red pustules containing powdery spores (urediniospores) appeared on the control leaf an infection was counted as valid. All compounds were tested in three biological replicates. Pictures were taken at 12-14 days post infection.

[1] = biological target: T1, Stp1/Stp4/Stp3 subcomplex (Mycosarcoma maydis, UniProt A0A0D1C5E3+A0A0D1CU07+A0A0D1EAN2); assay: Beta-Glo confirmatory assay (β-galactosidase expression) in NL73; format: cell-based, U. maydis; details: NL73 strain, Table 5; read-out: B-glo IC50
T1 sequence (A0A0D1CU07 29-515): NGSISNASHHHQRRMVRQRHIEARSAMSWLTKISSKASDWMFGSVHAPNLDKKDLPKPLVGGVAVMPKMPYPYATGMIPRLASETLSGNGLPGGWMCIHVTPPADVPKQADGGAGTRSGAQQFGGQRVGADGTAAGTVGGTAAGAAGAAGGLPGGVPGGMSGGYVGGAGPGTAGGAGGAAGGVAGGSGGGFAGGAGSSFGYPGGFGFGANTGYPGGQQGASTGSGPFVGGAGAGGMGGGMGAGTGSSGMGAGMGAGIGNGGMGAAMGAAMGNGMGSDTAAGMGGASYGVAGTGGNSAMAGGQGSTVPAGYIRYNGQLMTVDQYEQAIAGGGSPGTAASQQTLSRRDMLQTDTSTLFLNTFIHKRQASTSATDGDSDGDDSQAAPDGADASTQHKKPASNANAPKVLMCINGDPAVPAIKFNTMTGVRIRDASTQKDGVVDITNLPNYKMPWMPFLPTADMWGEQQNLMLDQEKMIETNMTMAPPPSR
T1 sequence (A0A0D1C5E3 24-129): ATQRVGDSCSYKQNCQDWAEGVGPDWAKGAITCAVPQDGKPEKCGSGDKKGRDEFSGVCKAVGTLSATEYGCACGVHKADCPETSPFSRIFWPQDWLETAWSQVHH
T1 sequence (A0A0D1EAN2 25-327): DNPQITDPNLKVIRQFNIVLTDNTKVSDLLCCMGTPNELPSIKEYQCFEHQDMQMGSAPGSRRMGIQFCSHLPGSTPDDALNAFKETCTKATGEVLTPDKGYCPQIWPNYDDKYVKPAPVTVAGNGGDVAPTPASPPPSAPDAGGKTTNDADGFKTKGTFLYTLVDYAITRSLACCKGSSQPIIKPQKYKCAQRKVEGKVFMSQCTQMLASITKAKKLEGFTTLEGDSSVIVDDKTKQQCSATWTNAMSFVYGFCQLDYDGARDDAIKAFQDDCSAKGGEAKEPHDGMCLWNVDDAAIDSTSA
Description: This system allows luminescence-based quantification of β-galactosidase expression in cells which serves as a readout for promoter activation by interacting complex members Stp1, Stp3 and Stp4. Overnight cultures of NL73 and NL70 strains were harvested as described above. Dilution series of compound stock solution were pre-dispensed into black 384-well assay plates (Corning 4513) using Echo520 Nanoliter dispenser starting from 10 µM with 3-fold dilution over 8 steps. In the viability setup, 15 µl of NL73 cell suspension were dispensed into the assay plates using Multidrop Combi. One column of the assay plate was filled with 15 µl of NL70 cell suspension. In the toxicity setup, 15 µl of NL70 cell suspension in low stringency medium were dispensed into the assay plates with one column being filled with 15 µl of NL70 cell suspension in high stringency medium. Plates were sealed with Breathe-Easy sealing membrane, lidded and incubated in a humid chamber over night at 30°C and 140 rpm in an Infors HT Multitron Pro. After approximately 19 h, plates were centrifuged for 1 min at 500 rpm. 4 µl of Beta-Glo assay solution were added using Multidrop Combi. The plates were sealed again and incubated for 2.5 h at room temperature, unlidded. Luminescence readout was determined on a Spectramax Paradigm detection platform for 0.2 s. Dose response data was analysed with Quattro Software Suite.

[2] = 0.5 mM final concentration in the inoculum
[3] = 1 mM final concentration in the inoculum of Vicia faba

Row | SMILES | virulence inhibition of U. fabae (pustule formation) (U. fabae; 0.1 mM final concentration) | virulence inhibition of U. fabae (pustule formation) (U. fabae; [2]) | virulence inhibition of U. fabae (pustule formation) (U. fabae; [3]) | inhibitory activity on U. fabae virulence (U. fabae; Figure 6, concentration not given) | IC50 [1]
1 | Cc1ccc(CSc2nc(=O)n(C3CCCC3)c3c2CCC3)cc1 [Compound 1-C] | inhibited pustule formation | inhibited pustule formation | inhibited pustule formation | strong inhibitory activity | 
2 | O=[N+]([O-])c1ccc(-c2c(-c3ccccc3)n3ccccc3[n+]2[O-])cc1 [Compound 3-A] |  | developed symptoms | able to inhibit pustule formation |  | 860 nM
3 | Cc1ccc(-c2c(-c3ccc(C)cc3)[n+]([O-])c3ccccn23)cc1 [Compound 1-A] |  | developed symptoms | able to inhibit pustule formation |  | 760 nM
4 | CC(C)n1ncc2cc(NS(=O)(=O)c3cc(F)ccc3F)cnc21 [Compound 1-B] |  |  | completely inhibited |  | 
5 | [O-][n+]1c(-c2ccc(C(F)(F)F)cc2)c(-c2ccc(C(F)(F)F)cc2)n2ccccc21 [Compound 2-A] |  | fully inhibit pustule formation | able to inhibit pustule formation |  | 230 nM
